Measurements as given in article doi:10.1101/2025.10.09.681351v1 (biorxiv, 2025).

How the values were obtained:
[1] = target: EPAS1 (mouse recombinant EPAS1; HIF-2α) (Mus musculus, UniProt P97481); assay: isothermal titration calorimetry; type: binding
recombinant human EPAS1 = recombinant human EPAS1 (Homo sapiens, UniProt Q99814); assay: isothermal titration calorimetry; type: binding
recombinant human EPAS1, sequence (Q99814 whole entry): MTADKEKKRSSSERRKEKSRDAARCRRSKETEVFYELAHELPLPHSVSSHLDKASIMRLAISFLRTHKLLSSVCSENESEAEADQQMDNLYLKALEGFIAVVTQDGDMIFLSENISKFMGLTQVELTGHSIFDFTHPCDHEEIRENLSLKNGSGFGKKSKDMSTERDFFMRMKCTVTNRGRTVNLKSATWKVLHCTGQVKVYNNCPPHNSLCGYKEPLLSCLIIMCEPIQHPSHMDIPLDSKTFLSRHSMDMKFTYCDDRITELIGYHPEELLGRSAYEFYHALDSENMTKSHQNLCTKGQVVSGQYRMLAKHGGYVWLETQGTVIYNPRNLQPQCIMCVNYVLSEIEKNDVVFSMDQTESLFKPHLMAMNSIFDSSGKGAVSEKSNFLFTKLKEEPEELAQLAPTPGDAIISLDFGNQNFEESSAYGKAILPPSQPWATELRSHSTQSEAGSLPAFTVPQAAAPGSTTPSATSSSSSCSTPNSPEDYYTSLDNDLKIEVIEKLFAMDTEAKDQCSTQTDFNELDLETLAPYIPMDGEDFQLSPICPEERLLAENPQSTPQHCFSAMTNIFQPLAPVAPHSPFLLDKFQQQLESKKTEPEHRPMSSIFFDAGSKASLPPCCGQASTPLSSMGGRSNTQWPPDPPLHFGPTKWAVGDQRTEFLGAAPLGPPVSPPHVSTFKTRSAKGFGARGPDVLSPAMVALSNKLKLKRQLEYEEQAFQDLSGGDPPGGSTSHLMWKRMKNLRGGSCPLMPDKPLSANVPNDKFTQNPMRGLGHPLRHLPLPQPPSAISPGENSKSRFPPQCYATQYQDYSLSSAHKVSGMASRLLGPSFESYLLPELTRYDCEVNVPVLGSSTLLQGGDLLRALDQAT

EPAS1 (mouse recombinant EPAS1; HIF-2α), sequence (P97481 whole entry): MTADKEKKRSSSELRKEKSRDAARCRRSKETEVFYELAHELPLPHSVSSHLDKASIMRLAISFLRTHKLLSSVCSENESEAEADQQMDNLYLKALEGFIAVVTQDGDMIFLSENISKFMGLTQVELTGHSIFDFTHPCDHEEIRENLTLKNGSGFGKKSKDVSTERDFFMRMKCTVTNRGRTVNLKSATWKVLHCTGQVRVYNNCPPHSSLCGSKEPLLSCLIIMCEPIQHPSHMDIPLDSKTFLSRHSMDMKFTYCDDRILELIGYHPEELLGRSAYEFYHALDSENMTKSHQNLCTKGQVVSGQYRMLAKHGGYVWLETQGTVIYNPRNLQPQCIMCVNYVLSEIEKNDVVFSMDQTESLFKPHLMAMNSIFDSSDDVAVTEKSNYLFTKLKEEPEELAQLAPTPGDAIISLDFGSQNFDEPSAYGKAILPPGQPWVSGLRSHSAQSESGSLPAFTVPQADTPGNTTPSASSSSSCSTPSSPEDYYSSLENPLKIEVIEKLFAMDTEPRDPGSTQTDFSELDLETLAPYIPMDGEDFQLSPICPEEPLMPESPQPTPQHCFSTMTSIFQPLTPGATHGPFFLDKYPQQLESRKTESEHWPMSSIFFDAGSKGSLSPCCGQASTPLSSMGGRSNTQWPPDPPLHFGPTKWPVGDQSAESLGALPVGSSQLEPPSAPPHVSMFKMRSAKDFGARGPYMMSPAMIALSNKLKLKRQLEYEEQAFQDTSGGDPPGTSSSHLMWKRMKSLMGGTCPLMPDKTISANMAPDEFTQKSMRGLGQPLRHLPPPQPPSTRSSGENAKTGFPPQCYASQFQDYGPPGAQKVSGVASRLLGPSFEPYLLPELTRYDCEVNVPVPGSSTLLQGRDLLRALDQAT

Kd [1]: 4.3 µM
Kd (recombinant human EPAS1): 5.3 µM
SMILES: CCCCCCCCC/C=C\C(=O)O [BDSF]
